Values of other authors in patent EP1085805B1, “USE OF AT LEAST ONE ACID FROM THE CITRIC ACID CYCLE COMBINED WITH GLYCERINE AS A PESTICIDE” (Biolink Technologies AG, priority 1998, dated 1999).

Row | Structure (SMILES) | LD50 Wert Ratte oral [mg/kg Körpergewicht]
1 | ClC1=C(Cl)[C@]2(Cl)[C@@H]3[C@@H]4C[C@@H]([C@H]5O[C@@H]45)[C@@H]3[C@@]1(Cl)C2(Cl)Cl [Dieldrin] | 56
2 | Cl[C@H]1[C@H](Cl)[C@@H](Cl)[C@@H](Cl)[C@H](Cl)[C@H]1Cl [Lindan] | 88
